In patent publication US4411890A, “Synthetic peptides having pituitary growth hormone releasing activity” (Beckman Instruments, Inc., priority 1981, dated 1983):
Where a SMILES comes first, the peptide text is derived from it.

Columns and labels:
pituitaries = assay: In vitro growth hormone release study (incubated rat pituitaries, GH by RIA); assay type: cell-based; conditions: GH released at I3, I4 (I5) minus P2, mean ± SEM
Description: Female rats of the CD-1 strain were housed in a constant temperature room at 24° C. with 14 hours light and 10 hours darkness. The rats were fed Purina brand rat chow ab libitum. All studies were started between 0800 and 1000 hours.
Pituitaries were removed from 20 day old female rats. In each polytetrafluoroethylene beaker (10 ml) was incubated two pituitaries at 36° C. in 1 ml of lactated Ringer's solution in a Dubnoff Shaker (90 cycles/min.). All medium in each beaker was removed each hour (e.g., P1, P2, I3, I4, I5) and then fresh medium was added back to each beaker. Each medium removed was assayed for GH, in duplicate, by a standard radioimmunoassay (RIA).
The growth hormone agonist of Example 1 was not added to the incubation mediums employed during the first hour of the incubation period (P1) or to the incubation mediums employed during the second hour of the incubation period (P2). The growth hormone agonist of Example 1 was dissolved in dimethylsulfoxide (DMSO; 10:1, agonist:DMSO), added to each incubation medium employed during the third hour of the incubation period (I3), to each medium employed during the fourth hour of the incubation period (I4), and, when performed, to each medium employed during the fifth hour of the incubation period (I5). The release of growth hormone was recorded as ΔGH and calculated by subtracting the amount of GH released at P2 from that released at I3, I4, and, when performed, I5. The agonist activity was determined from the release at I3, I4, and, when performed, I5. The mean of the ΔGH values obtained from the three beakers per dosage level measured at I3, I4, and, when performed, I5 are set forth in Table VI.

[1] = system: Female rats of The CD-1 strain; assay: In vivo growth hormone release study (subcutaneous injection, serum GH by RIA); parameters: species or system rat; conditions: serum GH about 15 minutes after injection, 21 day old female rats, mean ± SEM
Description: Female rats of The CD-1 strain were housed in a constant temperature room at 24° C. with 14 hours light and 10 hours darkness. The rats were fed Purina brand rat chow ab libitum. All studies were started between 0800 and 1000 hours. Each female rat (21 days old; eight rats per dosage level shown in Table XXVI) was injected subcutaneously with a desired dosage of the peptide of Example 6. Approximately 15 minutes after injection, the rat was guillotined. A blood sample was collected from the guillotined rat. The blood sample was centrifuged and a serum sample was collected therefrom. Each serum sample was assayed for GH, in duplicate, by a standard radioimmunoassay (RIA).

[2] = dosage 1 ng/ml incubation medium
[3] = dosage 3 ng/ml incubation medium
[4] = dosage 10 ng/ml incubation medium
[5] = dosage 1.0 μg/ml serum (so in the source)
[6] = dosage 3.0 μg/ml serum (so in the source)
[7] = dosage 10.0 μg/ml serum (so in the source)
[8] = dosage 30.0 μg/ml serum (so in the source)
[9] = dosage 30 ng/ml incubation medium
[10] = dosage 0.3 μg/ml serum (so in the source)
[11] = dosage 300 ng/ml incubation medium
[12] = dosage 3,000 ng/ml incubation medium
[13] = dosage 30,000 ng/ml incubation medium
[14] = dosage 100 ng/ml incubation medium
[15] = dosage 1,000 ng/ml incubation medium

Compound | ΔGH (pituitaries; [2]) [ng/ml incubation medium] | ΔGH (pituitaries; [3]) | ΔGH (pituitaries; [4]) | ΔGH [1, 5] [ng/ml subcutaneous] | ΔGH [1, 6] [ng/ml subcutaneous] | ΔGH [1, 7] [ng/ml subcutaneous] | ΔGH [1, 8] [ng/ml subcutaneous] | ΔGH (pituitaries; [9]) | ΔGH [1, 10] [ng/ml subcutaneous] | ΔGH (pituitaries; [11]) | ΔGH (pituitaries; [12]) | ΔGH (pituitaries; [13]) | ΔGH (pituitaries; [14]) | ΔGH (pituitaries; [15]) | ΔGH (pituitaries; dosage 10,000 ng/ml incubation medium)
C[C@H](NC(=O)[C@@H](Cc1c[nH]c2ccccc12)NC(=O)[C@@H](N)Cc1c[nH]cn1)C(=O)N[C@@H](Cc1c[nH]c2ccccc12)C(=O)N[C@H](Cc1ccccc1)C(=O)N[C@@H](CCCNC(=N)N)C(N)=O [H2 -His-D-Trp-Ala-Trp-D-Phe-Arg-NH2] (HELM PEPTIDE1{H.[dW].A.W.[dF].R.[am]}$$$$V2.0) | 805 ± 152 | 997 ± 249 ng/ml incubation medium | 2,064 ± 346 ng/ml incubation medium | 9.2 ± 3.4 | 32.2 ± 5.5 | 87.5 ± 31 | 31.1 ± 3.4 | – | – | – | – | – | – | – | –
C[C@H](NC(=O)[C@@H](Cc1c[nH]c2ccccc12)NC(=O)[C@@H](N)Cc1c[nH]cn1)C(=O)N[C@@H](Cc1c[nH]c2ccccc12)C(=O)N[C@H](Cc1ccccc1)C(=O)N[C@@H](CCC(N)=O)C(N)=O [H2 -His-D-Trp-Ala-Trp-D-Phe-Gln-NH2] (HELM PEPTIDE1{H.[dW].A.W.[dF].Q.[am]}$$$$V2.0) | 5 ± 136 | 140 ± 168 ng/ml incubation medium | 275 ± 66 ng/ml incubation medium | 1.4 ± 0.9 | 3.8 ± 2.1 | 32.1 ± 11.4 | – | – | – | – | – | – | – | – | –
C[C@H](NC(=O)[C@@H](Cc1c[nH]c2ccccc12)NC(=O)[C@@H](N)Cc1c[nH]cn1)C(=O)N[C@@H](Cc1c[nH]c2ccccc12)C(=O)N[C@H](Cc1ccccc1)C(=O)N[C@@H](CCC(=O)O)C(N)=O [H2 -His-D-Trp-Ala-Trp-D-Phe-Glu-NH2] (HELM PEPTIDE1{H.[dW].A.W.[dF].E.[am]}$$$$V2.0) | -78 ± 72 | -294 ± 75 ng/ml incubation medium | -243 ± 71 ng/ml incubation medium | 0.10 ± 0 | 1.50 ± 0.56 | 1.4 ± 0.78 | 8.06 ± 2.68 | 117 ± 41 ng/ml incubation medium | – | – | – | – | – | – | –
C[C@H](NC(=O)[C@@H](Cc1c[nH]c2ccccc12)NC(=O)[C@@H](N)Cc1c[nH]cn1)C(=O)N[C@@H](Cc1c[nH]c2ccccc12)C(=O)N[C@H](Cc1ccccc1)C(=O)N[C@@H](CCCCN)C(N)=O [H2 -His-D-Trp-Ala-Trp-D-Phe-Lys-NH2] (HELM PEPTIDE1{H.[dW].A.W.[dF].K.[am]}$$$$V2.0) | 955 ± 272 | 1,603 ± 305 ng/ml incubation medium | 2,244 ± 173 ng/ml incubation medium | 36 ± 15 | 66 ± 15 | 100 ± 19 | 122 ± 4 | 2,198 ± 358 ng/ml incubation medium | 6 ± 4 | – | – | – | – | – | –
C[C@H](NC(=O)[C@@H](Cc1c[nH]c2ccccc12)NC(=O)[C@@H](N)Cc1ccc(O)cc1)C(=O)N[C@@H](Cc1c[nH]c2ccccc12)C(=O)N[C@H](Cc1ccccc1)C(=O)N[C@@H](Cc1ccccc1)C(N)=O [H2 -Tyr-D-Trp-Ala-Trp-D-Phe-Phe-NH2] (HELM PEPTIDE1{Y.[dW].A.W.[dF].F.[am]}$$$$V2.0) | – | – | – | – | – | – | – | 10 ± 57 ng/ml incubation medium | – | 330 ng/ml incubation medium | 710 ng/ml incubation medium | 1,484 ± 135 ng/ml incubation medium | – | – | –
C[C@H](NC(=O)[C@@H](Cc1c[nH]c2ccccc12)NC(=O)[C@@H](N)Cc1ccc(O)cc1)C(=O)N[C@@H](Cc1c[nH]c2ccccc12)C(=O)N[C@H](Cc1ccccc1)C(=O)N[C@H](C(N)=O)[C@@H](C)O [H2 -Tyr-D-Trp-Ala-Trp-D-Phe-Thr-NH2] (HELM PEPTIDE1{Y.[dW].A.W.[dF].T.[am]}$$$$V2.0) | – | – | 94 ± 69 ng/ml incubation medium | – | – | – | – | – | – | – | – | – | 650 ± 320 ng/ml incubation medium | 2,167 ± 591 ng/ml incubation medium | 2,957 ± 834 ng/ml incubation medium
NC(=O)CC[C@H](NC(=O)[C@@H](Cc1ccccc1)NC(=O)[C@H](Cc1c[nH]c2ccccc12)NC(=O)CNC(=O)[C@@H](Cc1c[nH]c2ccccc12)NC(=O)[C@@H](N)Cc1ccc(O)cc1)C(N)=O [H2 -Tyr-D-Trp-Gly-Trp-D-Phe-Gln-NH2] (HELM PEPTIDE1{Y.[dW].G.W.[dF].Q.[am]}$$$$V2.0) | – | – | – | – | – | – | – | 103 ± 248 ng/ml incubation medium | – | – | – | – | 167 ng/ml incubation medium | 1,092 ng/ml incubation medium | –
H2 -3-N-Me-His-D-Trp-Ala-Trp-D-Phe-Lys-NH2 | 165 ± 136 | – | 1,857 ± 254 ng/ml incubation medium | – | – | 128 ± 16 | – | – | 45.0 ± 10 | – | – | – | – | – | –
H2 -His-D-Trp-Ala-Trp-D-Phe-Lys-NHCH2 CH3 | 726 ± 115 | – | 1,688 ± 300 ng/ml incubation medium | – | – | 119 ± 12 | – | – | 13.0 ± 5 | – | – | – | – | – | –
H2 -His-D-Trp-Ala-Trp-D-Phe-Lys-OH | 467 ± 178 | – | 330 ± 167 ng/ml incubation medium | – | 76 ± 24 | 119 ± 25 | 226 ± 43 | – | – | – | – | – | 2,441 ± 353 ng/ml incubation medium | – | –
H2 -Tyr-D-Trp-Ala-Trp-D-Phe-Lys-NH2 | – | – | – | – | – | – | – | 1,346 ± 328 ng/ml incubation medium | – | 2,160 ± 166 ng/ml incubation medium | 1,630 ± 135 ng/ml incubation medium | 1,318 ± 247 ng/ml incubation medium | – | – | –
